Measured values taken from BindingDB's records for doi:10.1021/jm3014635 (University of Nottingham, 2013).

Target: T1, Accessory gene regulator protein A (Staphylococcus aureus, UniProt P0A0I7)
T1 sequence (P0A0I7 whole entry): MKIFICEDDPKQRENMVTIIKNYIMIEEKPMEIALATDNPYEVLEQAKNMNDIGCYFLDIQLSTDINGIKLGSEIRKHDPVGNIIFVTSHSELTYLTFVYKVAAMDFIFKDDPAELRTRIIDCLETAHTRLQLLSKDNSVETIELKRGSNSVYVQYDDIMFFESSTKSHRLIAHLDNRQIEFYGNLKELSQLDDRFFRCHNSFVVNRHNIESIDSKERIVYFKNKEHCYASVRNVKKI
Experiment: Inhibition of Staphylococcus aureus RN6390B Agr-mediated RNA3 promoter activation measured up to 6 hrs by Northern blot analysis

IC50: 6 µM
SMILES: CCCCCCCCCC(=O)CC(=O)N[C@H]1CCOC1=O
